pEC50: −log10 of the molar value. In brackets after ≈: the same amount, converted by molar mass.
Experiments:
[1] = biological target: T1, Glucocorticoid receptor (Homo sapiens, UniProt P04150); test: Binding affinity to human recombinant GR by competition ligand binding fluorescence polarization assay
T1 sequence (P04150 whole entry): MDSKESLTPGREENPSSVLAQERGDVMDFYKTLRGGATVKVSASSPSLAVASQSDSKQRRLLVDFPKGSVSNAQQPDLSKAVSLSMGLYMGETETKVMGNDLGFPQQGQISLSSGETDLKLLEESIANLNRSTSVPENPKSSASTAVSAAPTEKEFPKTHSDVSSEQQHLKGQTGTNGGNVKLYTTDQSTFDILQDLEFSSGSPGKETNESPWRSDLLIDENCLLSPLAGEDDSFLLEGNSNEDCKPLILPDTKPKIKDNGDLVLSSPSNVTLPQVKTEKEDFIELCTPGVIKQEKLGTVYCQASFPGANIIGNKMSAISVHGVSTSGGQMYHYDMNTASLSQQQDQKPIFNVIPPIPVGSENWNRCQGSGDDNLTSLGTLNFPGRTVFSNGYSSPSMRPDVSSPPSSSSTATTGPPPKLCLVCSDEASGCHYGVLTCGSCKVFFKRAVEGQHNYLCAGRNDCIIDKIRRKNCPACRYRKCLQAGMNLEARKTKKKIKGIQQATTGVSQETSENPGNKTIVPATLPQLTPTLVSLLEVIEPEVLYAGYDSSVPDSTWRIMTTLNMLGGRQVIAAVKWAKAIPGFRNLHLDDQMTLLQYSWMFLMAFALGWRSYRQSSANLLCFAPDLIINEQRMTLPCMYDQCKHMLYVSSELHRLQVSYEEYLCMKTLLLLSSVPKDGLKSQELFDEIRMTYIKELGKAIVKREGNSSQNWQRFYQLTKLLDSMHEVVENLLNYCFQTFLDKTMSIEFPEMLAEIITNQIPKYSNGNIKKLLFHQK

[2] = biological target: T2, Progesterone receptor (Homo sapiens, UniProt P06401); test: Binding affinity to human recombinant PR by competition ligand binding fluorescence polarization assay
T2 sequence (P06401 whole entry): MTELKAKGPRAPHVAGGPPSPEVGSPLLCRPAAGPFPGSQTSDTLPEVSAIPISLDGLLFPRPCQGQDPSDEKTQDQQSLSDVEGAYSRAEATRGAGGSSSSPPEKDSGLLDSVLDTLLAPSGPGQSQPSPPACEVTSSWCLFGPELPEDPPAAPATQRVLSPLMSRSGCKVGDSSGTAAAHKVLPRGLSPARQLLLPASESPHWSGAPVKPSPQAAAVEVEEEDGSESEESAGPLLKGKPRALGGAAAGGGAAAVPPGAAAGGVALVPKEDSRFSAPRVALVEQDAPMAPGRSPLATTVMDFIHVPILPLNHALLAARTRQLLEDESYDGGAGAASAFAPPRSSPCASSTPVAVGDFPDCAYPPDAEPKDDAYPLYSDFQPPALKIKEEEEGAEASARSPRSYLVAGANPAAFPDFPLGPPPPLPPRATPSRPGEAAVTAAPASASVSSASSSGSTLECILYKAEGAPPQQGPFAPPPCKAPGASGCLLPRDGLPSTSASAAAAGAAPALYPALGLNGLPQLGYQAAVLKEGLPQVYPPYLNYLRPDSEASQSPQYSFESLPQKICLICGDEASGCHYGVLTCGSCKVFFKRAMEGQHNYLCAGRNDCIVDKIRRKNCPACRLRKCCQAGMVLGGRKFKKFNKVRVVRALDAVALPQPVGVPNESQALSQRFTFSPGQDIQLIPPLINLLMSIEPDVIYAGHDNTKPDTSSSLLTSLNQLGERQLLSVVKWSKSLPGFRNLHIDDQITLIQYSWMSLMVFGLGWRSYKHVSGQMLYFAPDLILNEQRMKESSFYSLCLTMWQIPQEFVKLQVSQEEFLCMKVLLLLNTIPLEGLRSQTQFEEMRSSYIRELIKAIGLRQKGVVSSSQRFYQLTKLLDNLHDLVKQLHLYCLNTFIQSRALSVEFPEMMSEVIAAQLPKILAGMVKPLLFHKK

[3] = Intrinsic clearance in human liver microsomes measured per mg of protein; type: ADME, Microsome
[4] = Solubility of the compound in PBS at pH 7.4; type: physicochemical
[5] = Intrinsic clearance in rat liver microsomes measured per mg of protein; type: ADME, Microsome
[6] = biological target: T1, Glucocorticoid receptor; test: Antagonist activity at human GR […] domain transfected in CHO cells co-transfected with MMTV-luciferase gene assessed as inhibition of cortisol-induced luciferase activity; type: cell-based
[7] = biological target: T3, Mineralocorticoid receptor (Homo sapiens, UniProt P08235); test: Antagonist activity at human MR ligand binding domain transfected in CHO cells co-transfected with MMTV-luciferase gene assessed as inhibition of cortisol-induced luciferase activity; type: cell-based
T3 sequence (P08235 whole entry): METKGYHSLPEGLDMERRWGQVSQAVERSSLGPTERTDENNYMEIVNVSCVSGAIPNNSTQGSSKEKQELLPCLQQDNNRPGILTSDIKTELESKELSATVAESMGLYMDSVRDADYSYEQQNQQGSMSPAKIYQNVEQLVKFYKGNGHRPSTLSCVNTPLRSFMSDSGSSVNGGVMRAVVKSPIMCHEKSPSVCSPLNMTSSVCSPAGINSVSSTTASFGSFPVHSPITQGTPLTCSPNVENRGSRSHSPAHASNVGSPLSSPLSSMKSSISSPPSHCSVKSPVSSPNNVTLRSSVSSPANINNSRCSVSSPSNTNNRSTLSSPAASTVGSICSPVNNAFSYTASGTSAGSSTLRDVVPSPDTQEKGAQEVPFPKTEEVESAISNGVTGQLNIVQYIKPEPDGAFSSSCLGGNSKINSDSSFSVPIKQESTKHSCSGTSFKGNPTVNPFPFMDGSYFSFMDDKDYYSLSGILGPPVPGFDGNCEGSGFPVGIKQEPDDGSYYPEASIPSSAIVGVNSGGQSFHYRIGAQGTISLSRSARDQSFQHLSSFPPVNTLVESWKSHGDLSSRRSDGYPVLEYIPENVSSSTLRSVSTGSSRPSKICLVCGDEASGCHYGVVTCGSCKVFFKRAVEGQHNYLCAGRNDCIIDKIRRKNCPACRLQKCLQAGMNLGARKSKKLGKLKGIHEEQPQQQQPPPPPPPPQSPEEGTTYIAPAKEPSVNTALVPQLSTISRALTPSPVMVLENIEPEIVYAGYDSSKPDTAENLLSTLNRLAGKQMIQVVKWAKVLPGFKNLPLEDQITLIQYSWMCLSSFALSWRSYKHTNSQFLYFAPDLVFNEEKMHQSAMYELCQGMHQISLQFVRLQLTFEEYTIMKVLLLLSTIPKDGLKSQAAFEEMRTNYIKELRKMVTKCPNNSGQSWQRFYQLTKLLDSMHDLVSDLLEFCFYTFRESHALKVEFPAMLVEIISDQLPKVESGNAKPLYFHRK

[8] = Oral bioavailability in Wistar rat at 10 mg/kg; type: ADME, organism-based; conditions: in vivo
[9] = Plasma clearance in Wistar rat at 2 mg/kg, iv; 10 mg/kg, po; type: ADME, organism-based
[10] = Volume of distribution at steady state in Wistar rat at 2 mg/kg, iv; 10 mg/kg, po; type: ADME, organism-based; conditions: in vivo, read-out: Vdss

Structure (SMILES) | pEC50 [1] | pEC50 [2] | also measured
Cc1noc(C)c1S(=O)(=O)NCc1ccc(-c2ccccc2)cc1 | 6.00 | < 5.00 | 
COc1ccccc1-c1ccc(CNS(=O)(=O)c2c(C)noc2C)cc1 | 7.50 | 6.70 | 
COc1ccc(F)cc1-c1ccc([C@H](C)NS(=O)(=O)c2c(C)noc2C)cc1 | 7.60 | 6.60 | 
COc1ncccc1-c1ccc([C@@H](C)NS(=O)(=O)c2c(C)noc2C)cc1 | 7.60 | 6.10 | 
COc1ncccc1-c1ccc([C@@H](C)NS(=O)(=O)c2cn(C)nc2C(F)(F)F)cc1 | 7.90 | < 5.00 | 
COc1ncc(C#N)cc1-c1ccc([C@@H](C)NS(=O)(=O)c2cn(C)nc2C(F)(F)F)cc1 | 7.90 | < 5.00 | solubility [4]: 28.9 µg/mL (≈ 62.1 µM); microsomal CLint [5]: < 12 µL/min/mg; pEC50 [6]: 7.00; pEC50 [7]: < 5.00; microsomal CLint [3]: < 12 µL/min/mg; bioavailability [8]: 42%; clearance [9]: 9.8 mL/min/kg; Vd [10]: 0.7 L/kg

Continued by rising pEC50 [1], values first:

pEC50 [1] | pEC50 [2] | Structure (SMILES) | also measured
7.90 | 6.90 | COc1ccc(F)cc1-c1ccc(CNS(=O)(=O)c2c(C)noc2C)cc1 | 
8.00 | 6.20 | Cc1noc(C)c1S(=O)(=O)N[C@H](C)c1ccc(-c2cccnc2OC(F)F)cc1 | microsomal CLint [3]: > 270 µL/min/mg
8.20 | 7.10 | COc1ncc(C#N)cc1-c1ccc([C@@H](C)NS(=O)(=O)c2c(C)noc2C)cc1 | 
8.30 | 6.70 | COc1ccc(F)cc1-c1ccc([C@@H](C)NS(=O)(=O)c2c(C)noc2C)cc1 | 
8.40 | 8.10 | Cc1noc(C)c1-c1ccc(CNS(=O)(=O)c2c(C)noc2C)cc1 | 
8.40 | 6.10 | COc1ccc(F)cc1-c1ccc([C@@H](C)NS(=O)(=O)c2cn(C)nc2C(F)(F)F)cc1 | 
8.70 | 7.30 | COc1ccc(F)cc1-c1ccc(CNS(=O)(=O)c2cc(Cl)ccc2Cl)cc1 | 
